Experimental data reported in publication PMC12019328, “Discovery of an ApoE4-targeted small-molecule SirT1 enhancer for the treatment of Alzheimer’s disease” (Scientific Reports, 2025).
≈ marks a conversion by molar mass, not a printed value.

Assays:
[1] = Liver microsome stability; format: in vitro ADME; conditions: pH 7.4; human liver microsomes 0.5 mg/mL, NADPH, 37 °C; read-out: Microsomal stability t1/2
Procedure: page 6: A03 DDL-214 Figure S3B. SirT1 protein levels in N2a-E4 cells after A03 and DDL-214 treatment. Compound treatment was done at 5 and 50 µM. SirT1 levels were measured by AlphaLISA followed and normalized to protein concentration DDL-218 Physiochemical Properties Physiochemical properties of DDL-218 are shown in Table S2. Brain Tissue Binding [fu,bound (%)] Brain tissue was homogenized in PBS (pH 7.4) (1: 3 weight(mg)/volume(µL)) and the protein concentration of was determined using the Micro BCA™ Protein Assay Kit (Thermo Fisher Scientific, Cat#23235). Brain homogenate was diluted to 20 mg/mL in PBS (pH 7.4) and added to Slide-A-Lyzer™ MINI Dialysis Devices, 10K MWCO dialysis cups (Thermo Fisher Scientific, Cat#PI88401) in 48-well plate containing PBS (500 µL; pH 7.4). 1 µL of 1 mM compound was added to the brain homogenate (Final Concentration: 2 µM compound, 0.5% DMSO) and incubated on a rocker for 4.5 hours at 37 °C. […] The % of the unbound drug (fu,bound) was calculated using the following equation: fu,bound = [normalized peak area in buffer side / normalized peak area in brain side] x 100 Liver Microsome Stability [t1/2 (min)] […] An aliquot (50 µL) of each supernatant was analyzed by LC-MS/MS. […] Aliquots (50 µL) of supernatant were analyzed by LC-MS/MS to create the standard curve. […]

Kinetic solubility = format: physicochemical; conditions: aqueous buffer, kinetic from dmso stock, PBS pH 7.4, 37°C
Procedure: supernatants were transferred to new tubes and lyophilized. Samples were reconstituted in 100 µL of 50/50/0.1 (Water/Acetonitrile/Formic Acid) prior to analysis via liquid chromatography-tandem mass spectrometry (LC-MS/MS).
Normalized chromatographic peak areas was plotted at each time point and the half-life (T1/2) of compound in liver microsomes was determined by using the trendline equation to calculate the time at which compound abundance was 50% of that at timepoint 0 (T0).
Kinetic solubility was assessed by separately diluting a test compound solution (10 mM, 100% DMSO) into the aqueous buffer (PBS pH 7.4) and DMSO at 100 μM, 100 μL total volume.
The solutions were then incubated at 37°C for 90 min and centrifuged (16000xg, 5 min). An aliquot (50 µL) of each supernatant was analyzed by LC-MS/MS.
Five standard concentrations (100, 10, 1, 0.1, and 0, DMSO) in duplicates were incubated at 37°C for 90 min and centrifuged (16000xg, 5 min). Aliquots (50 µL) of supernatant were analyzed by LC-MS/MS to create the standard curve.
Table S2. DDL-218 Physiochemical Properties
Kinetic solubility (μM) 64.4
Brain Tissue Binding [fu,bound (%)] 43 […]

With CC(N)C(=O)OC(C)(C)Cc1ccncc1 (centres unmarked) [DDL-218] the half-life [1] was greater than 2.33 h and the solubility kinetic at 90 min (Kinetic solubility) was 64.4 µM (≈ 14.3 µg/mL).
